# How the values were obtained:
# [1] = tested on: gastric acid secretion; test: Gastric acid secretion in the pylorus ligated rat (antisecretory activity); type: in vivo, rat (male Sprague-Dawley); settings: 4 hours
# Procedure: GASTRIC ACID SECRETION IN THE PYLORUS LIGATED RAT
# Male Sprague-Dawley rats weighing 150±5 g fasting since 48 hours were used. Pylorus ligation was performed for 4 hours. The products under examination were administered by the oral route immediately after the ligation.
# [2] = tested on: carbachole-induced salivation; test: Carbachole salivation in the rat; type: in vivo, rat (male Sprague-Dawley); settings: 62.5 mg/kg p.o., one hour before carbachole 1 mg/kg i.p.
# Procedure: CARBACHOLE SALIVATION IN THE RAT
# The method cited by R. Turner: "Parasympatholytic Agents" in R. Turner "Screening Methods in Pharmacology" pag. […] Academic Press. […] Male Sprague-Dawley rats, mean weight 150±5 g, fasting since 24 hours, were used.
# The salivation was induced by the intraperitoneal administration of 1 mg/kg of carbachole. The products under exam were administered orally one hour before the cholinergic stimulus.
# [3] = in vivo; settings: mouse, oral, Swiss mice, 14 days observation
# Procedure: The acute toxicity was determined by administering by oral route the substances under exam to Swiss mice, average weight 20±2 g. The observation period was 14 days. 10 Animals were used for each assayed dose.
SMILES,% Antisecretory activity ([1]; 6.25 mg/kg p.o.),% Antisecretory activity ([1]; 12.5 mg/kg p.o.),% Antisecretory activity ([1]; 25 mg/kg p.o.),Salivation by carbachol- protection % [2],LD50 at 336 h [3]
C[N+]1(CCC(=O)N2c3ccccc3C(=O)Nc3cccnc32)CCCCCC1 [Compound 13],19.2%,47.5%,69.6%,30%,> 500 mg/kg
"C[N+]1(CC(=O)N2c3ccccc3C(=O)Nc3cccnc32)CCCCC1 [Compound 4, 11-[2-(Piperidin-1-yl)acetyl]-5,11-dihydro-6H-pyrido[2,3-b][1,4]benzodiazepin-6-one iodomethylate]",22.7%,48.1%,70.3%,70%,> 500 mg/kg
"C[N+](C)(C)CC(=O)N1c2ccccc2C(=O)Nc2cccnc21 [Compound 3, 11-(2-Dimethylaminoacetyl)-5,11-dihydro-6H-pyrido-[2,3-b][1,4]-benzodiazepin-6-one iodomethylate]",6.0%,14.3%,35.9%,0%,< 500 mg/kg
CC(C)(C)C(=O)OC[N+]1(C)CCC(C(=O)N2c3ccccc3C(=O)Nc3cccnc32)CC1 (stereo not shown) [Compound 15],9.6%,27.7%,41.8%,10%,> 500 mg/kg
"C[N+]1(C)CC[N+](C)(CC(=O)N2c3ccccc3C(=O)Nc3cccnc32)CC1 [Compound 2, 11-[2-(4-Methylpiperazin-1-yl)acetyl]-5,11-dihydro-6H-pyrido[2,3-b][1,4]benzodiazepin-6-one N^1,4 bisiodomethylate]",10.3%,15.1%,20.4%,30%,> 500 mg/kg

# Source: patent US4594190A, “Quaternary salts of dibenzo[1,4]diazepinones, pyrido-[1,4]benzodiazepinones, pyrido[1,5]benzodiazepinones with antiulcer, antisecretory, spasmolytic and antimusarinic activities” (priority 1983, dated 1986)
